In US8906684B2, “Three dimensional cell patterned biopolymer scaffolds and methods of making the same” (The Regents of the University of California, priority 2002, dated 2014):

Tested on: HepG2 cells
Format: cell-based
Conditions: HepG2, amounts used for photocrosslinking
Procedure: Cell culture and viability assays in the presence of photopolymerizing agents. HepG2 cells (American Type Culture Collection, Manassas, Va.) were cultured in 175 cm^2 flasks (Fisher, Springfield, N.J.) and were passaged preconfluency no more than 13 times. The cells were maintained in minimal essential medium (MEM; Gibco, Grand Island, N.Y.) supplemented with 5% fetal bovine serum, 100 ug/mL penicillin, and 100 ug/mL streptomycin and incubated at 5% CO2 and 37° C. The cells to be incorporated into hydrogels were added to the prepolymer solution containing initiator and were mixed gently prior to UV exposure.
In order to explore the effects of photoinitiator and UV exposure on cell death, individual components were tested in HepG2 cultures. 3.0×10^5 cells were seeded in six-well culture dishes and allowed to proliferate until near confluency. A solution of 300 mg/mL of 2,2-dimethyl-2-phenyl-acetophenone (Aldrich) in 1-vinyl-2-pyrrolidinone (Sigma) was added to MEM in concentrations of 0, 3, 5, and 10 ul/ml. […] Cell viability was measured by an Mi viability assay, which forms a purple precipitate by cleavage of the tetrazolium ring by mitochondrial dehydrogenase enzymes. […] The absorbance was measured at 570 nm with a SpectraMax Plus spectrophotometer (Molecular Devices, Sunnyvale, Calif.). […]

## C=CN1CCCC1=O [1-vinyl-2-pyrrolidinone]
  toxicity to cells of initiator solvent alone: not found to be toxic
